Results taken from patent US8242125B2, “Heterobicyclic carboxamides as inhibitors for kinases” (Novartis AG, priority 2008, dated 2012).

Target: T1, Ba/F3-Tel-KDR cells (Homo sapiens, UniProt P35968)
T1 construct: fused on or other part: N-terminal oligomerising part of TEL (ETV6) fused to the tyrosine kinase domain of KDR; P41212 (Transcription factor ETV6)
Assay: Ba/F3-Tel-KDR cell viability inhibition assay (CellTiter-Glo)
Assay type: cell-based
Details: 48 hour incubation, read-out: IC50 (the source's name)
Description: This assay is a cell-based assay to measure the compound-mediated suppression of Ba/F3 cell proliferation and viability using the Luciferase bioluminescent assay commercially known as CellTiter-Glo™. In this case, a specifically modified cell line, Ba/F3-Tel-KDR is used. These cells are engineered such that intact signaling through the tyrosine kinase domain of KDR is critical for their survival. Inhibition of KDR signaling results in cell death which is quantitated using a cell viability assay. This is a homogeneous bioluminescent assay that yields a rapid, simple and sensitive determination of the number of viable cells in culture by generation of a luminescent signal proportional to the amount of ATP present in cells. KDR inhibitor compound dilutions are incubated with Ba/F3-Tel-KDR cells over a 48 hour period and the resulting cell viability is measured with a suitable luminometer.
This assay is performed in Ba/F3-Tel-KDR cells. Cells are cultured at 37° C. […] Medium is changed the day before the experiment. On Day 1, cells are plated into white solid bottom 384-well plates at 5000 cells/well in 25 μl culture medium. A ten-point dose response curve is prepared as follows: compounds are first serially diluted 3-fold in 100% DMSO, starting from 10 mM. […] 5 μl of diluted compound is added to cell plates with 25 μl culture medium. […] The final concentration of DMSO is 0.1%. Wells without or with cells plus 0.1% DMSO serve as controls. On Day 3, Lyophilized CellTiter-Glo buffer and substrate and the cell plates are first equilibrated to room temperature. Substrate is reconstituted in buffer and 30 μl reconstituted substrate is added to each well. After incubation for 10 minutes at room temperature, plates are read in a luminometer. Compounds are tested in a 10-point dose response and each concentration is run in triplicate on a given plate. Each plate is run in duplicate.

T1 sequence (P35968 whole entry, change not shown, the tested form may be a part): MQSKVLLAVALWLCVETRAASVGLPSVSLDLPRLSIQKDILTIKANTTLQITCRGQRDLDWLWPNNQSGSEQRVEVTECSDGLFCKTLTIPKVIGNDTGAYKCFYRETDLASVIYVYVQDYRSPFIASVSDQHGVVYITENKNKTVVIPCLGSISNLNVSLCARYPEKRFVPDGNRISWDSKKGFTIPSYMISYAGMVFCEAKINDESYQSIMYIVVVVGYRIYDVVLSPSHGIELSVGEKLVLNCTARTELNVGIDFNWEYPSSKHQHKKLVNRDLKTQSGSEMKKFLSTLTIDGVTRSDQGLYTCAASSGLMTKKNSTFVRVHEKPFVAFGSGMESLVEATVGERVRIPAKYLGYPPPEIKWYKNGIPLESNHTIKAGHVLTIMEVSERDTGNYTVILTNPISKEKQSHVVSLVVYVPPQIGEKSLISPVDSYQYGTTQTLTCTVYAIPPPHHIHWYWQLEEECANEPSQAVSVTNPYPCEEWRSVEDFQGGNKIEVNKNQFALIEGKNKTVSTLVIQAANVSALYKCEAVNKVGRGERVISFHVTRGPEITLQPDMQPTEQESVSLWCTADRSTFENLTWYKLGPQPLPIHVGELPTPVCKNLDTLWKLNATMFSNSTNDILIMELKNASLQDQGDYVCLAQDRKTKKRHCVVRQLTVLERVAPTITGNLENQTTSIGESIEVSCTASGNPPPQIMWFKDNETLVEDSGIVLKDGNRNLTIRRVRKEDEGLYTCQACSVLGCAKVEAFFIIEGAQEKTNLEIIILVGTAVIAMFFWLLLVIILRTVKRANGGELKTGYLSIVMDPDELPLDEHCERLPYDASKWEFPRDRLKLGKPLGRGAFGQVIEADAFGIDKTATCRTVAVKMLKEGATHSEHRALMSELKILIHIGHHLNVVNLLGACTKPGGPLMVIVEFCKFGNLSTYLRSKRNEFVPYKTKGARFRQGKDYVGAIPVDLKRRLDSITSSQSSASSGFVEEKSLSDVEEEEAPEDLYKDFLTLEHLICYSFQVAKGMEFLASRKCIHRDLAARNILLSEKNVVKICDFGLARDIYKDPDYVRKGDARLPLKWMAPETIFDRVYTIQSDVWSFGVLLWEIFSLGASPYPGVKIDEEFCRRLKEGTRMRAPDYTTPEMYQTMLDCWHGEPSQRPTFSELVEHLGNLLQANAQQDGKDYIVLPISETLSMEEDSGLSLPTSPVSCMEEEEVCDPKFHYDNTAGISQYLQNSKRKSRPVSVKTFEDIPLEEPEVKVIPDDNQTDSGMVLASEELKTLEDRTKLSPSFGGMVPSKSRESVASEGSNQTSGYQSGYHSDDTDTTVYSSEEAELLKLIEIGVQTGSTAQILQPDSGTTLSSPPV

Compound | GI50 [µM]
CC(=O)N1CC2C[C@H]1CN2Cc1cc(Oc2ccc3c(ccn3C(=O)Nc3cccc(C(F)(F)F)c3)c2)ncn1 (stereo in doubt) [Example 98-B, 5-[6-((1R,4S)-5-Acetyl-2,5-diaza-bicyclo[2.2.1]hept-2-ylmethyl)-pyrimidin-4-yloxy]-indole-1-carboxylic acid (3-trifluoromethyl-phenyl)-amide] | < 0.001
CNCc1cc(Oc2ccc3c(ccn3C(=O)Nc3cc(C)n(CC(F)(F)F)n3)c2)ncn1 [Example 137-P] | 0.011
O=C(Nc1cc(-c2ccccc2)[nH]n1)n1ccc2cc(Oc3ncnc4c3CCNC4)ccc21 [Example 51-D] | 0.011
O=C(Nc1cccc(C(F)(F)F)c1)n1ccc2cc(Oc3cc(CN4CCCC4)ncn3)ccc21 [Example 19-K] | 0.222
CC(C)Cc1cc(NC(=O)n2ccc3cc(Oc4ncnc5c4CNC5)ccc32)no1 [Example 57-N, 5-(6,7-dihydro-5H-pyrrolo[3,4-d]pyrimidin-4-yloxy)-indole-1-carboxylic acid (5-isobutyl-isoxazol-3-yl)-amide] | 0.091
CCN1Cc2ncnc(Oc3ccc4c(ccn4C(=O)Nc4cc(C5(C(F)(F)F)CC5)on4)c3)c2C[C@@H]1C [Example 136-B] | 0.002
CNC(=O)c1cc(Oc2ccc3c(ccn3C(=O)Nc3cccc(C(F)(F)F)c3)c2)ccn1 [Example 28-B, 5-(2-Methylcarbamoyl-pyridin-4-yloxy)-indole-1-carboxylic acid (3-trifluoromethyl-phenyl)-amide] | 0.011
Cc1c(Oc2ncnc3c2C[C@H](C)NC3)ccc2c1ccn2C(=O)Nc1cc(C2CC2)on1 [Example 134-AG] | 0.095
O=C(Nc1ccc(F)c(C(F)(F)F)c1)n1ccc2cc(Oc3cc(CNC4CC4)ncn3)ccc21 [Example 19-Y] | 0.023
CN1Cc2ncnc(Oc3ccc4c(ccn4C(=O)Nc4cccc(C(F)(F)F)c4)c3)c2C1 [Example 63-A, 5-(6-methyl-6,7-dihydro-5H-pyrrolo[3,4-d]pyrimidin-4-yloxy)-indole-1-carboxylic acid (3-trifluoromethyl-phenyl)-amide] | 0.008
O=C(Nc1cncc(C(F)(F)F)c1)n1ccc2cc(Oc3ncnc4c3CCNC4)ccc21 [Example 55-B, 5-(5,6,7,8-Tetrahydro-pyrido[3,4-d]pyrimidin-4-yloxy)-indole-1-carboxylic acid (5-trifluoromethyl-pyridin-3-yl)-amide] | 0.107
CNCc1cc(Oc2ccc3c(ccn3C(=O)Nc3ccc(OC)c(C(F)(F)F)c3)c2)ncn1 [Example 76-E, N-(4-methoxy-3-(trifluoromethyl)phenyl)-5-(6-((methylamino)methyl)pyrimidin-4-yloxy)-1H-indole-1-carboxamide] | < 0.001
CCC(=O)N1Cc2ncnc(Oc3ccc4c(ccn4C(=O)Nc4cc(C5CC5)on4)c3)c2C[C@@H]1C [Example 135-BH] | 0.002
CCn1nc(NC(=O)n2ccc3cc(Oc4cc(CNC)ncn4)ccc32)cc1C1CC1 [Example 137-AA] | 0.002
CNC(=O)C1Cc2c(ncnc2Oc2ccc3c(ccn3C(=O)Nc3cc(C4CC4)on3)c2)CN1 (racemic) [Example 148-G, (±)-4-[1-(5-Cyclopropyl-isoxazol-3-ylcarbamoyl)-1H-indol-5-yloxy]-5,6,7,8-tetrahydro-pyrido[3,4-d]pyrimidine-6-carboxylic acid methylamide] | 0.088
C[C@@H]1Cc2c(ncnc2Oc2ccc3c(ccn3C(=O)Nc3cc(C4(C)CC4)n[nH]3)c2F)CN1 [Example 54-I] | < 0.001
CC(=O)N1Cc2ncnc(Oc3ccc4c(ccn4C(=O)Nc4cc(C5(C)CC5)on4)c3)c2C1 [Example 135-AS] | 0.01
O=C(Nc1cccc(C(F)(F)F)c1)n1ccc2c(F)c(Oc3ncnc4c3CCNC4)ccc21 [Example 33-E] | 0.009
O=C(Nc1cccc(C(F)(F)F)c1)n1ccc2cc(Oc3ccnc(CO)c3)ccc21 [Example 25-D, 5-(2-Hydroxymethyl-pyridin-4-yloxy)-indole-1-carboxylic acid (3-trifluoromethylphenyl)-amide] | 0.003
O=C(Nc1cc(C2(C(F)(F)F)CC2)on1)n1ccc2cc(Oc3ncnc4c3CCCNC4)ccc21 [Example 134-A] | 0.003
CC(C)c1cc(NC(=O)n2ccc3cc(Oc4cc(CNC5CC5)ncn4)ccc32)n[nH]1 [Example 137-I] | 0.1
CC(C)(CO)c1cc(NC(=O)n2ccc3cc(Oc4ncnc5c4CCNC5)ccc32)[nH]n1 [Example 49-B, 5-(5,6,7,8-Tetrahydro-pyrido[3,4-d]pyrimidin-4-yloxy)-indole-1-carboxylic acid [5-(2-hydroxy-1,1-dimethyl-ethyl)-2H-pyrazol-3-yl]-amide] | 0.022
Cc1cc2cc(Oc3ncnc4c3CNC4)ccc2n1C(=O)Nc1cc(C(C)(C)C)on1 [Example 57-C, 5-(6,7-dihydro-5H-pyrrolo[3,4-d]pyrimidin-4-yloxy)-2-methyl-indole-1-carboxylic acid (5-tert-butyl-isoxazol-3-yl)-amide] | < 0.001
